Source: publication PMC9364801, “APOBEC3 selects V179I in HIV-1 reverse transcriptase to provide selective advantage for non-nucleoside reverse transcriptase inhibitor-resistant mutants” (Frontiers in virology, 2022)

Columns and labels:
Details in all cases: TZM-bl cells, MOI 0.02, 48 h; virus infectivity read-out; NNRTI pocket
[1] = target: T1, HIV-1 reverse transcriptase (RT), HIV-1NL4-3 (Human immunodeficiency virus type 1 (NEW YORK-5 ISOLATE), UniProt P12497); assay: single-cycle pseudovirus infection, luciferase; type: cell-based; parameters: gene gag-pol; mature RT p66/p51 heterodimer cut from Gag-Pol polyprotein; […]; tested in TZM-bl cells
[2] = target: T1, HIV-1 reverse transcriptase (RT), HIV-1NL4-3; assay: single-cycle pseudovirus infection, luciferase; type: cell-based; parameters: gene gag-pol; mature RT p66/p51 heterodimer cut from Gag-Pol polyprotein; […]; tested in TZM-bl cells; remark: listed apart in the source
[3] = target: T1, HIV-1 reverse transcriptase (RT), HIV-1NL4-3; parameters: gene gag-pol
[4] = target: T1, HIV-1 reverse transcriptase (RT), HIV-1NL4-3; assay: single-cycle pseudovirus infection, luciferase; type: cell-based; parameters: gene gag-pol; mature RT p66/p51 heterodimer cut from Gag-Pol polyprotein; […]; tested in TZM-bl cells; remark: listed apart in the source

In the case of `Cc1cc(C)c(Nc2ccnc(Nc3ccc(C#N)cc3)n2)c(C)c1` [DAP, dapivirine], the “DAP EC50” value [1] is reported as 0.26 ± 0.13 nM.
In the case of `Cn1c(Cn2ccc(C(F)(F)F)c(Oc3cc(Cl)cc(C#N)c3)c2=O)n[nH]c1=O` [DOR, doravirine], the “DOR EC50” value [2] is reported as 1.4 ± 0.28 nM.
`O=C1Nc2ccc(Cl)cc2[C@@](C#CC2CC2)(C(F)(F)F)O1` [EFV, efavirenz] was tested, and the “EFV EC50” value [3] was 0.65 ± 0.30 nM.
In the case of `Cc1cc(C#N)cc(C)c1Oc1nc(Nc2ccc(C#N)cc2)nc(N)c1Br` [ETR, etravirine], the “ETR EC50” value [4] is reported as 0.83 ± 0.23 nM.
